Reference: article PMC9673926, “Nucleotide binding as an allosteric regulatory mechanism for Akkermansia muciniphila β-N-acetylhexosaminidase Am2136” (Gut Microbes, 2022)
Changes are numbered by the printed parent chain.

Tests used:
Am2136 WT = target: T1, Am2136 WT (Akkermansia muciniphila, UniProt B2UPR7); assay: Nucleotide binding affinity by intrinsic fluorescence
T1 construct: The coding region (residue Q20-L756) of Am2136 without signal peptide was based on UniProt; 6XHis (N); made in house; host or cells: E. coli BL21 (DE3)
Procedure: The nucleotide binding ability was determined on Fluorescence Spectrometer Duetta (HORIBA) by measuring the change of peak intensity. The fluorescence was excited at 286 nm and emitted at 336 nm. And the measurement was processed under 400 V voltage with 2.5 nm excitation slit and 5 nm emission slit. […] The sample was incubated at 4°C for 5 min before testing.

Am2136 Y550A = target: T2, Am2136 Y550A (Akkermansia muciniphila, UniProt B2UPR7, Y550A); assay: GDP regulated enzyme activity assay, mutant; conditions: 1 mM GDP, substrate pNP-β-GlcNAc
T2 sequence (B2UPR7 20-756 Y550A): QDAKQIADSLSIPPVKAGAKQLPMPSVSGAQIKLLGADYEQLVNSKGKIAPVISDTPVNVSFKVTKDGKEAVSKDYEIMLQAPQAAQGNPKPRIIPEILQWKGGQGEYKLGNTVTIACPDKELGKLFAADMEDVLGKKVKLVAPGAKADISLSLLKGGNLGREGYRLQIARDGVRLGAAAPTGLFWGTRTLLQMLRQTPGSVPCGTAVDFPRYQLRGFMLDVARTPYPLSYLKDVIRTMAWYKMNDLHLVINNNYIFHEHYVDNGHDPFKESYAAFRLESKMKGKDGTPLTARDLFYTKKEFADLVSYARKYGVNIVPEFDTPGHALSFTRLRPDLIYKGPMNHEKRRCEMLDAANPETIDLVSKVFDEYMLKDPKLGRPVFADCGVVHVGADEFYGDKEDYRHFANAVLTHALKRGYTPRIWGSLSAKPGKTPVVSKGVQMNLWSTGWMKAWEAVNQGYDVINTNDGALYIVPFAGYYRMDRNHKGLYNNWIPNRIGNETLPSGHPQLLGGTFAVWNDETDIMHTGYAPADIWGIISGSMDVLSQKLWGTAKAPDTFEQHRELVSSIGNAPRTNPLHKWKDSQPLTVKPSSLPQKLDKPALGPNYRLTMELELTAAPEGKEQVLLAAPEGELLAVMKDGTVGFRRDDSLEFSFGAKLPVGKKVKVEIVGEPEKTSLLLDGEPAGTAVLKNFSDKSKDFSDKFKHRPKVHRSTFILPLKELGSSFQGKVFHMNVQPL

Am2136 R592A = target: T3, Am2136 R592A (Akkermansia muciniphila, UniProt B2UPR7, R592A); assay: GDP regulated enzyme activity assay, mutant; conditions: 1 mM GDP, substrate pNP-β-GlcNAc
T3 sequence (B2UPR7 20-756 R592A): T2 sequence (B2UPR7 20-756 Y550A) with A531Y, R573A

Am2136 P595A+H597A = target: T4, Am2136 P595A+H597A (Akkermansia muciniphila, UniProt B2UPR7, H597A/P595A); assay: GDP regulated enzyme activity assay, mutant; conditions: 1 mM GDP
T4 sequence (B2UPR7 20-756 P595A/H597A): T2 sequence (B2UPR7 20-756 Y550A) with A531Y, P576A, H578A

T1 sequence (B2UPR7 20-756): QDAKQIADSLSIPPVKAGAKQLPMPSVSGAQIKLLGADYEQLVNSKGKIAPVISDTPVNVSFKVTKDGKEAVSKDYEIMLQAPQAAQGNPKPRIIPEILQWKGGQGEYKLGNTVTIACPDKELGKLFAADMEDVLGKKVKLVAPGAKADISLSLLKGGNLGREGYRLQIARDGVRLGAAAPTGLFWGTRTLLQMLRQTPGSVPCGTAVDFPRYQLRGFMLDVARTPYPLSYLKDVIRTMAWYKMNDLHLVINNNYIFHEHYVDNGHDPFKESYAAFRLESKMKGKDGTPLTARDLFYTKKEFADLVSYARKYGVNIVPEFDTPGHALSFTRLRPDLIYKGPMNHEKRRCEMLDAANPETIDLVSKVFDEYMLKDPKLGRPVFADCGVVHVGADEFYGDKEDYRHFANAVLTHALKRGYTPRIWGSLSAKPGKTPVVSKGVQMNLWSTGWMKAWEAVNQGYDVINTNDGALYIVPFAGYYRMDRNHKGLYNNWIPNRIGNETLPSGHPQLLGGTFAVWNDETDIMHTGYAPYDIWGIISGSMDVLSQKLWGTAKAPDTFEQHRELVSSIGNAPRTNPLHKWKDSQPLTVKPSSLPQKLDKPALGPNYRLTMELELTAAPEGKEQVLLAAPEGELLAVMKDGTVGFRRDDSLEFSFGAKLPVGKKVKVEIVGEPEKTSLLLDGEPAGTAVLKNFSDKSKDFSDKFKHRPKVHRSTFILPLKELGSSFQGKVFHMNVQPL

With `Nc1nc2c(ncn2[C@@H]2O[C@H](COP(=O)(O)OP(=O)(O)O)[C@@H](O)[C@H]2O)c(=O)[nH]1` [GDP] the Kd (Am2136 WT; Am2136 WT, fluorescence ex 286 nm/em 336 nm) was 116 µM, the Kd (Am2136 WT; WT dialyzed (EDTA treated)) was 114 ± 5.22 µM and the Kd (Am2136 WT; WT dialyzed + Ca^2+) was 117 ± 4.37 µM. For the same compound, the Kd (Am2136 WT; WT dialyzed + Mg^2+) was 118 ± 5.85 µM, the Vmax (Am2136 Y550A) was 463 ± 7 µmol/min and the Vmax (Am2136 R592A) was 442 ± 5 µmol/min. The Vmax (Am2136 P595A+H597A; P595A+H597A, substrate pNP-β-GlcNAc) was 447 ± 4 µmol/min and the “increase of kcat/Km with versus without GDP” value (Am2136 P595A+H597A; P595A/H597A) was “roughly two-fold increase”.
